The test system of this assay is multiple of infections (MOI).

SMILES strings stand for the structures.

On to `OC[C@H]1O[C@@](CO)(O[C@H]2O[C@H](CO)[C@@H](O)[C@H](O)[C@H]2O)[C@@H](O)[C@@H]1O` [5% Sucrose, sucrose], for which, where the note is “medium streaked with mixed MOI culture”, the “bacterial and viral growth / resistance to proteolysis by MOI” value was “bacterial activity and viral replication at exponential rate”. In addition, the “Comparative Degree of Resistance” value (resistance to proteolysis by MOI, ambient temperature (24° C.)) worked out at 5.0 h. Further, where the note is “resistance to proteolysis by MOI, ambient temperature (24° C.), 5% Sucrose = 1.0”, the “Relative Resistance” value is listed as 1.0.

The values above are taken from patent publication US20030096015A1, “Cytogenic/nucleogenic healing” (priority 1997, published 2003).
